“And” between values parts separate entries of the source, which are not always exact repeats. Identical values can stand only once.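 Grown in 96-well plates, cells were treated for 48 hours with each compound at five concentrations. Insufficient inhibition: endpoint recorded as highest concentration tested. GI50 is the concentration that inhibits growth by half. TGI is the concentration that stops growth completely.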
Experiments:
Experiment in all cases: inhibition of tumour cell growth, NCI panel, 48 h
HL-60(TB) leukemia = test system: HL-60(TB) leukemia
IGROV1 ovarian = test system: IGROV1 ovarian
RXF 393 renal = test system: RXF 393 renal
NCI-H522 lung = test system: NCI-H522 lung
SK-MEL-28 melanoma = test system: SK-MEL-28 melanoma
M14 melanoma = test system: M14 melanoma
UACC-62 melanoma = test system: UACC-62 melanoma
SF-539 CNS = test system: SF-539 CNS
NCI-H23 lung = test system: NCI-H23 lung
HCT-116 colon = test system: HCT-116 colon

SMILES | GI50 (HL-60(TB) leukemia) | TGI (HL-60(TB) leukemia) | GI50 (IGROV1 ovarian) | TGI (IGROV1 ovarian) | GI50 (RXF 393 renal) | TGI (RXF 393 renal) | GI50 (NCI-H522 lung) | TGI (NCI-H522 lung) | GI50 (SK-MEL-28 melanoma) | TGI (SK-MEL-28 melanoma) | GI50 (M14 melanoma) | TGI (M14 melanoma) | GI50 (UACC-62 melanoma) [µM] | TGI (UACC-62 melanoma) | GI50 (SF-539 CNS) | TGI (SF-539 CNS) | GI50 (NCI-H23 lung) [µM] | TGI (NCI-H23 lung) | GI50 (HCT-116 colon) [µM] | TGI (HCT-116 colon)
O=NN(CCCl)C(=O)NC1CCCCC1 | 41.5 µM and 41 µM | 69.9 µM and > 80.6 µM and 83.8 µM | 19.7 µM and 73.2 µM | 57.4 µM and 150 µM and 162 µM | 18.1 µM and 76.4 µM | 32.9 µM and 102 µM and 143 µM | 12.5 µM and 42.5 µM | 26.1 µM and 75.4 µM and 83.2 µM | 24.1 µM and 66.1 µM | 46.5 µM and 144 µM and 99.2 µM | 16.8 µM and 56.8 µM | 33 µM and 127 µM and 82.8 µM | 7.68 | 24.2 µM and 72 µM and 77.3 µM | 16.4 µM and 33 µM | 34 µM and 84.4 µM and 124 µM | 116 | 152 µM and 235 µM | 21 | 50.2 µM and 105 µM
COc1ccc(OCC(O)CN2CCN(c3ccc(Cl)cc3)CC2)cc1 (stereo not drawn) | > 100 µM | > 100 µM | 18.1 µM | > 100 µM | 79.1 µM | > 100 µM | 69.3 µM | > 100 µM | > 100 µM | > 100 µM | > 100 µM | > 100 µM | > 100 | > 100 µM | > 100 µM | > 100 µM | > 100 | > 100 µM | > 100 | > 100 µM
COC(=O)CC1CC2(C(=O)OC)c3[nH]c4ccccc4c3CCN2C1=O (stereo not drawn) |  | > 100 µM |  | > 100 µM |  | > 100 µM |  | > 100 µM |  | > 100 µM |  | > 100 µM |  | > 100 µM |  | > 100 µM |  | > 100 µM |  | > 100 µM
CC1OC(OC2C(O[C@H]3CC[C@@]4(C)C(=CC[C@H]5[C@@H]6C[C@@H]7O[C@]8(CC[C@@H](C)CO8)[C@@H](C)[C@@H]7[C@@]6(C)CC[C@@H]54)C3)OC(CO)C(OC3OC(CO)C(O)C3O)C2O)C(O)C(O)C1O (stereo partly drawn) | 0.506 µM | 1.77 µM and 1.89 µM | 0.45 µM | 1.61 µM and 1.62 µM | 0.294 µM | 1.83 µM and 0.962 µM | 1.23 µM | 1.77 µM and 2.47 µM | 0.21 µM | 1.37 µM and 0.522 µM | 0.205 µM | 1.43 µM and 0.362 µM | 0.349 | 1.5 µM and 1.07 µM | 0.343 µM | 1.3 µM and 1.08 µM | 1.23 | 1.6 µM and 2.47 µM | 1.26 | 1.6 µM and 2.52 µM
COc1ccc(/C=C\c2cc(OC)c(OC)c(OC)c2)c(NS(=O)(=O)c2ccc(C(C)(C)C)cc2)c1O | 0.039 µM | 2.34 µM | 0.986 µM | 35.8 µM | 0.0379 µM | 16 µM | 0.213 µM | 12.2 µM | 4.91 µM | 22.2 µM | 0.191 µM | 13.5 µM | 0.113 | 17.5 µM | 0.159 µM | 0.509 µM | 0.497 | 17.5 µM | 0.365 | 13.6 µM
CC1=C(CNO)C2=C(C)C3(CC3)[C@@](C)(O)C(=O)C2=C1 | 2.77 µM | 30.7 µM | 0.898 µM | 7 µM | 0.726 µM | 2.41 µM | 0.679 µM | 5.25 µM | 2.37 µM | 6.05 µM | 1.92 µM | 5.04 µM | 1.8 | 3.73 µM | 1.64 µM | 5.03 µM | 0.473 | 2.72 µM | 1.85 | 5.21 µM
COC(=O)[C@]1(C)CCC[C@]2(C)[C@@H]1CCC13C[C@@H](C=CO1)[C@@H](C)CC32O (stereo partly drawn) | 45.4 µM | > 100 µM | > 100 µM | > 100 µM | 66.8 µM | > 100 µM | > 100 µM | > 100 µM | > 100 µM | > 100 µM | 50.3 µM | > 100 µM | > 100 | > 100 µM | 0.0516 µM | > 100 µM | 20.3 | > 100 µM | 7.89 | > 100 µM
C=C(Cn1c2ccccc2c(=O)c2ccccc21)c1ccc(C(=O)Nc2ccccc2N)cc1 | 0.662 µM | > 26.9 µM | > 19.8 µM | > 100 µM | > 100 µM | > 100 µM | 2.72 µM | > 100 µM | > 100 µM | > 100 µM | 12.2 µM | > 100 µM | > 100 | > 100 µM | 3.59 µM | > 100 µM | 45.1 | > 100 µM | 4.5 | > 100 µM
CC1=CCN(c2ccccn2)OC1c1ccccc1 (stereo not drawn) |  | > 100 µM |  | > 100 µM |  | > 100 µM |  | > 100 µM |  | > 100 µM |  | > 100 µM |  | > 100 µM |  | > 100 µM |  | > 100 µM |  | > 100 µM
COc1cc(CCc2ccc(OC(C)=O)cc2)cc(OC)c1OC |  | > 100 µM |  | > 100 µM |  | > 100 µM |  | > 100 µM |  | > 100 µM |  | > 100 µM |  | > 100 µM |  | > 100 µM |  |  |  | > 100 µM
c1ccc2c3c([nH]c2c1)C1C2CCCCN2C(c2ccncc2)N1CC3 (stereo not drawn) |  | 52.5 µM |  |  |  | 83.4 µM |  | > 100 µM |  | > 100 µM |  | > 100 µM |  | > 100 µM |  | > 100 µM |  | > 100 µM |  | > 100 µM
